The subject of the test is Nucleic Acid. The experiment in a line: Binding affinity towards calf thymus DNA was determined. The format is nucleic-acid assay. To be noted: Bos taurus.

Each structure is given as a SMILES string.

The compound `NCCN(CCN)CCNC(=O)c1c2ccccc2nc2ccccc12` registered a K of 150000 M⁻¹.

The compound `NCCC(=O)NCCN(CCNC(=O)Cc1c[nH]cn1)CCNC(=O)c1c2ccccc2nc2ccccc12` yielded a K of 16000 M⁻¹.

As for `NCCN(CCNC(=O)Cc1c[nH]cn1)CCNC(=O)c1c2ccccc2nc2ccccc12`, the K stood at 22000 M⁻¹.

Source of the values: ChEMBL document CHEMBL1127951, “Synthesis and RNA cleaving activities of polyamine derived novel artificial ribonuclease” (Bioorg Med Chem Lett, 1994).
